ChEMBL document CHEMBL1201862, “PubChem BioAssay data set” (2004)
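Results reflect a 48-hour exposure of cells in 96-well plates to compound at five concentrations. Here, GI50 denotes the concentration required for 50% inhibition of growth.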 Calls of active or inactive are those of the source. No stated cut-off is given here; in the data, active = GI50 up to about 1.1 µM and inactive = higher.

Legend:
Assay in all cases: growth of human tumour cells (NCI), 48 h
U-251 = system: U-251
IGROV-1 = system: IGROV-1
MDA-MB-435 = system: MDA-MB-435
HT-29 = system: HT-29
OVCAR-4 = system: OVCAR-4
MDA-MB-231 = system: MDA-MB-231
NCI-H226 = system: NCI-H226
UACC-62 = system: UACC-62
SK-MEL-28 = system: SK-MEL-28
SK-OV-3 = system: SK-OV-3
LOX IMVI = system: LOX IMVI
RXF 393 = system: RXF 393
PC-3 = system: PC-3
Hs-578T = system: Hs-578T
MDA-N = system: MDA-N
ACHN = system: ACHN
SN12C = system: SN12C
TK-10 = system: TK-10
HOP-62 = system: HOP-62
MCF7 = system: MCF7

Measured: GI50

CCOc1cc(C=O)c2c(ccc3ccc(OC)c(OC)c32)c1OC
inactive: U-251 88.9 µM | IGROV-1 89.9 µM | MDA-MB-435 70.6 µM | HT-29 37.5 µM | OVCAR-4 51.1 µM | MDA-MB-231 > 100 µM | NCI-H226 67.1 µM | UACC-62 67.8 µM | SK-MEL-28 89.9 µM | SK-OV-3 > 100 µM | LOX IMVI 32.4 µM | RXF 393 > 100 µM | PC-3 17.7 µM | Hs-578T 37.8 µM | MDA-N 57 µM | ACHN 44 µM | SN12C 70.6 µM | TK-10 > 100 µM

CC(C)(C)C1CCC2c3c([nH]c4ccccc34)C3C(=O)N(c4ccccc4Cl)C(=O)C3C2C1 (stereo unspecified)
inactive: HOP-62 14.5 µM | U-251 15.6 µM | IGROV-1 25.9 µM | MDA-MB-435 30.7 µM | HT-29 5.86 µM | MDA-MB-231 10.3 µM | NCI-H226 > 10 µM | UACC-62 14 µM | SK-OV-3 22.8 µM | LOX IMVI 10.6 µM | RXF 393 11.9 µM | PC-3 5.31 µM | Hs-578T 10.4 µM | MDA-N 12.1 µM | ACHN 14.1 µM | SN12C 10.6 µM | TK-10 19.4 µM

O=C(c1ccccc1)N(CCCCNC(=O)C(F)(F)F)CCCNC(=O)C(F)(F)F
inactive: U-251 > 100 µM | IGROV-1 > 100 µM | MDA-MB-435 > 100 µM | HT-29 > 100 µM | OVCAR-4 > 100 µM | MDA-MB-231 > 100 µM | NCI-H226 > 100 µM | UACC-62 > 100 µM | SK-MEL-28 > 100 µM | SK-OV-3 > 100 µM | LOX IMVI > 100 µM | RXF 393 > 100 µM | MCF7 > 100 µM | Hs-578T > 100 µM | MDA-N > 100 µM | ACHN > 100 µM | SN12C > 100 µM | TK-10 > 100 µM

CCOC(=O)c1c(NS(=O)(=O)c2ccc(C)cc2)sc2c1CCCC2
inactive: HOP-62 23.2 µM | IGROV-1 27.2 µM | HT-29 24.2 µM | MDA-MB-231 22.5 µM | NCI-H226 40.8 µM | UACC-62 17.5 µM | MCF7 24.4 µM | PC-3 16.2 µM | Hs-578T 26.9 µM | MDA-N 42.7 µM | ACHN 29.9 µM | SN12C 31.8 µM | TK-10 28.4 µM

N#Cc1nn(C(N)=O)c(N)c1C#N
inactive: HOP-62 > 100 µM | U-251 > 100 µM | IGROV-1 > 100 µM | HT-29 > 100 µM | OVCAR-4 > 100 µM | MDA-MB-231 > 100 µM | NCI-H226 > 100 µM | UACC-62 > 100 µM | SK-MEL-28 > 100 µM | SK-OV-3 > 100 µM | MCF7 > 100 µM | PC-3 > 100 µM | Hs-578T > 100 µM | MDA-N > 100 µM | ACHN > 100 µM | SN12C > 100 µM | TK-10 > 100 µM

C=C[C@@H](OCOCC[Si](C)(C)C)[C@@H](CC)OC(CCCOC(=O)C(C)(C)C)OC (stereo partly specified)
inactive: HOP-62 36.7 µM | U-251 21 µM | IGROV-1 49 µM | MDA-MB-435 38.5 µM | HT-29 29.4 µM | OVCAR-4 26.4 µM | MDA-MB-231 66.1 µM | NCI-H226 21.9 µM | UACC-62 25.1 µM | SK-MEL-28 34.5 µM | SK-OV-3 > 100 µM | MCF7 21.8 µM | PC-3 37.3 µM | Hs-578T 27.1 µM | MDA-N 45.1 µM | ACHN 36.7 µM | SN12C 45.3 µM | TK-10 14.9 µM
